# Assay results reported in US20260272895A1, “METHODS AND KITS FOR DELIVERY OF COMPOUNDS INTO CELLS” (Yale University, priority 2023, published 2026).
# Legend:
# SLCO1A2 [1] = molecular target: T1, SLCO1A2 (Homo sapiens, UniProt P46721); assay: Compound uptake in HEK293 cells transfected with SLCO1A2; format: cell-based; design: FLAG
# T1 sequence (P46721 1-670): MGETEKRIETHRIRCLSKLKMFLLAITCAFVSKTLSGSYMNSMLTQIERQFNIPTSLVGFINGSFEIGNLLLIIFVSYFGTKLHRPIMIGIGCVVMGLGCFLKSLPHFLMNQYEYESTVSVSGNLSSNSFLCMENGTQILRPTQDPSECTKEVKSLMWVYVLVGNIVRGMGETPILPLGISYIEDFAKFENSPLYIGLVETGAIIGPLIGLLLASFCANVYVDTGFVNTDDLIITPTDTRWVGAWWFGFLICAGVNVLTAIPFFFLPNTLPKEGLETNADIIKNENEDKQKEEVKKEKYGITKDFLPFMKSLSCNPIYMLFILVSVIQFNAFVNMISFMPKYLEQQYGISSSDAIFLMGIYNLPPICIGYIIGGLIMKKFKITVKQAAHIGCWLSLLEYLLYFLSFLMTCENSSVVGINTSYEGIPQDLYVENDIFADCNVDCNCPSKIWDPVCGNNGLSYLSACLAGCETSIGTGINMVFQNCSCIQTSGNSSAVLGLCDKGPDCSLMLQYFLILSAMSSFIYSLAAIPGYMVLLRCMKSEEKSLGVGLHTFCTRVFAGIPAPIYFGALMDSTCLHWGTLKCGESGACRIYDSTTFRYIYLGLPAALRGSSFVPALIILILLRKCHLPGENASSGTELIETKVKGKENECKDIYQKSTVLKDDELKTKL
# Protocol: HEK293 cells are cultured and seeded at ~60% confluency in 24-well plates and are transiently transfected with 250 ng of a candidate transporter and 1 μL transfection reagent (JetPRIME). After 2 days, cells are washed and novel fluorescent probes at different concentrations are added to the transport medium and incubated at 37° C., for at least 30 minutes. To terminate the transport, cells are washed with PBS and fixed with 4% paraformaldehyde. The colocalization of probe uptake and cells expressing the transporters is investigated by immunostaining the transporter which has a fused FLAG tag, using anti-FLAG 488. Before confocal imaging, nuclei are labeled with Hoechst 33342 and cells are mounted and imaged on a Leica SP8 confocal microscope.
# For in vitro experiments, HEK293 cells were cultured and seeded in 24-well plates, reaching approximately 60% confluency. For transient transfection, 250 ng of a candidate transporter plasmid and 1 μL of transfection reagent (JetPRIME) were added to the cells. After a 2-day incubation period, the cells were washed, and novel fluorescent probes were introduced into the transport medium at various concentrations. The cells were then incubated at 37° C., for a minimum of 30 minutes to allow for uptake. To stop the transport process, the cells were washed with PBS and fixed using 4% paraformaldehyde. Immunostaining of the transporter, which was fused with a FLAG tag, was performed using an anti-FLAG 488 antibody. Before confocal imaging, the cell nuclei were labeled with Hoechst 33342. Finally, the cells were mounted and imaged using a Leica SP8 confocal microscope.
# SLCO1A2 [2] = molecular target: T1, SLCO1A2; assay: Uptake by cells ectopically expressing SLCO1A2 (in utero electroporation or AAV8) in live mice; format: in vivo, mouse; design: P2A:EGFP (AAV8 construct only; EGFP is separated at P2A) (C, cleaved yes); FLAG (in utero electroporation plasmid only); host or cells: cortical neurons of live mice (AAV8 subarachnoid infusion or in utero electroporation); conditions: topical cortical administration (50 μM where stated)
# Protocol: IUE is performed at E14 or E15 as previously done. Briefly, timed pregnant mice are anaesthetized with ketamine/xylazine. The abdominal region is shaved, sterilized and a 3 cm midline incision is made in the skin and abdominal muscle. The uterine horns are exposed, and the lateral ventricle of each embryo is pressure injected (Picospritzer II, General Valve) with plasmid DNA (~[…] volume per embryo) at a concentration of […] followed by electroporation with tweezertrodes (50 V, 4-50 ms pulses with I s pulse interval. BTX Harvard Apparatus). The embryos are placed back in the mother womb, and the muscle and skin are sutured. Electroporated pups are aged to postnatal day 30. Imaging is performed through a craniotomy over the transfected hemisphere following dye labeling.
# The Adeno-associated virus (AAV) for expression of SLCO1A2 was custom-made (VectorBuilders). Briefly, The AAV8 virus carrying the pAAV-CAG>hSLCO1A2:P2A:EGFP construct was produced by cloning the hSLCO1A2 gene variant downstream of the CAG promoter in the pAAV8 expression vector. A P2A sequence was inserted to link the hSLCO1A2 gene with the EGFP coding sequence. The constructed vector was transfected into HEK293 cells, and the virus produced was harvested and ultra-purified for a final titer >10^13 GC/mL. AAV virus were injected into the mouse subarachnoid space using a previously described method. Briefly, mice were anesthetized with ketamine-xylazine. A skull window, approximately 1 mm in diameter, was created using a high-speed drill at coordinates 6 mm anteroposterior and 3 mm mediolateral from bregma. Subsequently, a 30-gauge needle was carefully used to lift a small piece of thinned skull, exposing the underlying dura. The stock solutions of AAV were diluted in fresh sterile phosphate-buffered saline (PBS) solution (1:20, v/v) at room temperature, then kept on ice and adjusted to a titer of 10^12 GC/mL. The AAV solutions were loaded into a Tygon tube, connected to a polypropylene tip with an outer diameter of 70 μm, which was further attached to a programmable syringe pump with a Hamilton syringe. […]
SMILES,uptake in SLCO1A2 transfected HEK293 cells (SLCO1A2 [1]; concentration not given),uptake by neurons ectopically expressing SLCO1A2 (SLCO1A2 [2]),uptake in SLCO1A2 transfected HEK293 cells (SLCO1A2 [1]; 10 μM),uptake by neurons ectopically expressing SLCO1A2 (SLCO1A2 [2]; listed as Colchicine-eEDITS),uptake by neurons ectopically expressing SLCO1A2 (SLCO1A2 [2]; listed as Colchicine-eEDiTS)
"O=S(=O)([O-])c1cc(S(=O)(=O)O)ccc1C1=c2cc3c4c(c2Oc2cc(Br)ccc21)CCC[N+]=4CCC3 [Compound 1, 2-(12-bromo-1,2,3,5,6,7-hexahydrochromeno[2,3-f]pyrido[3,2,1-ij]quinolin-4-ium-9-yl)-5-sulfobenzenesulfonate]",only those cells expressing the carrier SLCO1A2 (as evidenced by anti-FLAG labeling-green) take up compound 1,only those cells that express SLCO1A2 or SLCO1A4 (as evidenced by the GFP fluorescence (green)) take up compound 1,,,
"COc1cc2c(c(OC)c1OC)-c1ccc(OC)c(=O)cc1C(NS(=O)(=O)c1ccc(-c3c4ccc(N(C)C)cc4[o+]c4cc(N(C)C)ccc34)c(S(=O)(=O)[O-])c1)CC2 (centres unmarked) [Compound 47, 2-(3,6-bis(dimethylamino)xanthylium-9-yl)-5-(N-(1,2,3,10-tetramethoxy-9-oxo-5,6,7,9-tetrahydrobenzo[a]heptalen-7-yl)sulfamoyl)benzenesulfonate]",,,robust and selective uptake,robust uptake by cells expressing SLCO1A2,marked uptake
